Laboratory results published in patent US10888547B2, “Amorphous and a crystalline form of genz 112638 hemitartrate as inhibitor of glucosylceramide synthase” (Genzyme Corporation, priority 2009, dated 2021).

How the values were obtained:
[1] = test system: Gaucher mice (D409V/null); assay: Separate and sequential enzyme and substrate reduction therapy in Gaucher mice; type: in vivo, mouse
Excerpt: Procedures involving animals were reviewed and approved by the Institutional Animal Care and Use Committee (IACUC) at Genzyme Corporation following the guidelines issued by the Association for Assessment and Accreditation of Laboratory Animal Care (AAALAC). […] The study had 6 groups of mice with group A being sacrificed after 2 weeks to provide baseline levels of tissue glucosylceramide. Groups B, C, and D all received recombinant human glucocerebrosidase (Genzyme Corp., Cambridge, Mass.) (10 mg/kg) intravenously via a tail-vein (100 μL) every 2 days for a total of 8 injections. Group B was sacrificed at the end of this regimen (at the same time as group A) to provide enzyme-reduced levels of tissue glucosylceramide. Groups D and E were both fed Formula (I) Hemitartrate (Genzyme Corp., Cambridge, Mass.) as a component of the pellet food diet. The drug was formulated at 0.075% (w/w) in standard 5053 mouse chow (TestDiet, Richmond, Ind.) and provided ad libitum. […] Group F received no treatment and was sacrificed along with groups C, D and E 12 weeks after the start of the study. Food consumption and mouse weights were monitored three times per week to determine drug intake and the potential impact of the drug on overall health. Animals were killed by carbon dioxide inhalation and their tissues harvested immediately. Half of each tissue was snap frozen on dry ice and stored at −80° C. until ready for further processing. The other half was processed for histological analysis.
Glucosylceramide levels were quantified by mass spectrometry as described previously (see K. McEachern, et al., J. Gene. Med. 8 (2006) 719-729; T. Doering, J. Biol. Chem. 274 (1999) 11038-11045, the entire teachings of both are incorporated herein by reference). A known mass of tissue was homogenized in 2:1 (v/v) chloroform:methanol and incubated at 37° C. for 15 min. Samples were centrifuged and the supernatants were extracted with 0.2 volumes of water overnight at 4° C. The samples were centrifuged, the aqueous phase was discarded, and the organic phase was dried down to a film under nitrogen. For electrospray ionization mass spectrometry (ESI/MS) analysis, tissue samples were reconstituted to the equivalent of […] original tissue weight in 1 ml chloroform:methanol (2:1, v/v) and vortexed for 5 min. Aliquots (40 μL) of each sample were delivered to Waters total recovery vials and 50 μL of a 10 μg/mL d3-C16-GL-1 internal standard (Matreya, Inc., Pleasant Gap, Pa.) was added. Samples were dried under nitrogen and reconstituted with 200 μL of 1:4 (v/v) DMSO:methanol. ESI/MS analysis of glucosylceramides of different carbon chain lengths was performed on a Waters alliance HPLC (Separation Module 2695) coupled to a Micromass Quattro Micro system equipped with an electrospray ion source. Lipid extract samples (20 μL) were injected onto a C8 column ([…] i.d; Phenomenex, Torrance, Calif.) at 45° C. and eluted with a gradient of 50 to 100% acetonitrile (2 mM ammonium acetate, 0.1% formic acid) at 0.5 mL/min. The first 0.5 min. was held at 50% organic and then quickly switched to 100% for the final 3.5 min. The source temperature was held constant at 150° C. and nitrogen was used as the desolvation gas at a flow rate of 670 L/h. The capillary voltage was maintained at 3.80 KV with a cone voltage of 23 V, while the dwell time for each ion species was 100 ms. Spectra were acquired by the MRM mode to monitor eight dominant isoforms (C16:0, C18:0, C20:0, C22:1, C22:0, C22:1-OH, C24:1, and C24:0). Quantitation of glucosylceramide was based on the sum of these eight isoforms relative to the internal standard, with a calibration curve ranging from 0.1 to 10 μg/mL.
For histological analysis, tissues were fixed in zinc formalin (Electron Microscopy Sciences, Hatfield, Pa.) at room temperature for 24 h, then stored in PBS at 4° C. until ready for further processing. […]

[2] = both, human, in vivo
Excerpt: This was an open-label, fixed-sequence study in 36 healthy subjects (17 males and 19 females).

GM3 in B16/F10 cells = assay: Flow cytometry of cell surface GM3 in intact cells; type: cell-based
Excerpt: Since […] the first and rate-limiting step in the biosynthesis of glycosphingolipids, a flow cytometry assay that measured cell surface levels of GM 1 and GM3 was used to indirectly assess the activity of the inhibitor in intact cells.

Aqueous solubility = type: physicochemical; details: in water
Fabry mice = assay: Monotherapy of Fabry mice, drug in diet; type: in vivo, mouse; details: 300 mg/kg per day in diet, 11 months
Procedure: For the monotherapy studies, Fabry mice were put on study at 1 month old (prevention model). Treatment groups received Formula (I) Hemitartrate (Genzyme Corp., Cambridge, Mass.) as a component of the pellet food diet. The drug was formulated at 0.15% (w/w) in standard 5053 mouse chow (TestDiet, Richmond, Ind.) and provided ad libitum.
Quantitation of GL-3 was by Tandem Mass Spectrometry essentially as for GL-1.
Hot plate Assay was performed as described previously (Ziegler, R J et al. Molec. Ther. 15(3), 492-500 (2007).
SRT was evaluated in a mouse model of Fabry disease, which is caused by a deficiency of α-galactosidase A activity. Therapy with Formula (I) Hemitartrate started with one month-old Fabry mice and continued until the mice reached one year of age. […] Behavioral tests (i.e., hot-plate assay) and biochemical tests (i.e., urinalysis and GL-3 level analysis in tissues/blood/urine) of the mice were performed bimonthly.

[3] = Approximate solubility in organic solvents from solvent addition; type: physicochemical; details: organic solvent or mixture, thermodynamic from solid, room temperature (20-25° C.)
Procedure: A weighed sample (usually 20 mg) was treated with aliquots of the test solvent. Aliquots were typically 100-200 μL. Between solvent additions, the mixture was shaken or sonicated. When the solids dissolved, as judged by visual inspection, the solution was allowed to evaporate under ambient conditions in an open vial covered with aluminum foil perforated with pinholes. Solubilities were estimated from these experiments based on the total solvent added to obtain a clear solution.

[4] = group D: 2 weeks enzyme, then 150 mg/kg/day in food for 10 weeks
[5] = group E: 150 mg/kg/day in food alone for 12 weeks

For CCCCCCCC(=O)N[C@H](CN1CCCC1)[C@H](O)c1ccc2c(c1)OCCO2 [Formula (I) Hemitartrate], the “liver histopathology, CD68-positive Gaucher cells” value ([1]; 2 weeks enzyme, then substrate reduction therapy for 10 weeks) was “increase in Gaucher cells was negated”, the “weight gain versus regular chow” value ([1]; chow containing 150 mg/kg/day) was “no discernible differences in weight gain” and the “liver histopathology, CD68-positive Gaucher cells” value ([1]; drug alone for 12 weeks) was “reduced accumulation of the substrate”. The “lung GL1 levels versus untreated controls (F)” value ([1]; group D: 2 weeks enzyme, then 150 mg/kg/day in chow for 10 weeks) was “significantly lower”, the “liver GL1 levels versus untreated controls (F)” value [1, 4] was “significantly lower” and the “splenic GL1 levels versus untreated control (F)” value [1, 4] was “significantly lower”. For the same compound, the “liver GL-1 levels versus untreated, age-matched controls (F)” value [1, 5] was “the difference was not significant”, the “pulmonary GL1 levels versus untreated controls (F)” value [1, 5] was “effective in lowering pulmonary GL1 levels” and the “splenic GL1 levels versus untreated controls (F)” value [1, 5] was “the difference was not significant”. For the same compound, the “accumulation in AUC, repeated versus single dose administration” value [2] was 2 fold, the “accumulation in Cmax, repeated versus single dose administration” value [2] was 2 fold and the “increase in AUC with concomitant paroxetine versus multiple-dose alone” value [2] was 9 fold. The “increase in Cmax with concomitant paroxetine versus multiple-dose alone” value [2] was 7 fold, the IC50 (GM3 in B16/F10 cells; Mus musculus, 72 h incubation, printed range 12-48 nM, read-out: mean IC50 for inhibiting the cell surface presentation of GM3) was 0.029 µM and the cellular toxicity (GM3 in B16/F10 cells; up to the highest dose (0.6-1000 nM), 72 h) was “No overt cellular toxicity”. The Aqueous solubility (Aqueous solubility) was greater than 216 mg/mL, the Aqueous solubility (Aqueous solubility; listed as Formula I Hemitartrate) was “over 300 mg/mL” and the “presentation of insensitivity to an aversive heat stimulus (hot-plate assay)” value (Fabry mice) was “later presentation”. The “urinalysis factors (urine volume, creatinine and sodium levels)” value (Fabry mice) was “prevention of deterioration”, the solubility ([3]; Acetone) was less than 5 mg/mL and the solubility ([3]; Acetonitrile) was less than 5 mg/mL. For the same compound, the solubility ([3]; Dichloromethane) was 100 mg/mL, the solubility ([3]; Ethanol) was 29 mg/mL and the solubility ([3]; Ethyl Acetate) was less than 5 mg/mL. The solubility ([3]; Isopropyl alcohol) was less than 5 mg/mL, the solubility ([3]; Methanol) was greater than 200 mg/mL and the solubility ([3]; Methyl t-butyl ether (TBME)) was less than 5 mg/mL. It also gave a solubility ([3]; Tetrahydrofuran (THF)) of less than 5 mg/mL, a solubility ([3]; Toluene) of less than 5 mg/mL and a solubility ([3]; p-Dioxane) of less than 5 mg/mL.
